Data from paper PMC4769319, “Cohesin Releases DNA through Asymmetric ATPase-Driven Ring Opening” (Molecular Cell, 2016).
pKd: −log10 of the molar value.

Target: T1, Smc1/Smc3 heterodimer with Scc1-C (cohesin) (Saccharomyces cerevisiae, UniProt P32908+P47037)
T1 construct: N-terminal tags; Sf9 insect cells; fluorescently labelled for MST; with Sister chromatid cohesion protein 1
T1 sequence (P32908 1-1225): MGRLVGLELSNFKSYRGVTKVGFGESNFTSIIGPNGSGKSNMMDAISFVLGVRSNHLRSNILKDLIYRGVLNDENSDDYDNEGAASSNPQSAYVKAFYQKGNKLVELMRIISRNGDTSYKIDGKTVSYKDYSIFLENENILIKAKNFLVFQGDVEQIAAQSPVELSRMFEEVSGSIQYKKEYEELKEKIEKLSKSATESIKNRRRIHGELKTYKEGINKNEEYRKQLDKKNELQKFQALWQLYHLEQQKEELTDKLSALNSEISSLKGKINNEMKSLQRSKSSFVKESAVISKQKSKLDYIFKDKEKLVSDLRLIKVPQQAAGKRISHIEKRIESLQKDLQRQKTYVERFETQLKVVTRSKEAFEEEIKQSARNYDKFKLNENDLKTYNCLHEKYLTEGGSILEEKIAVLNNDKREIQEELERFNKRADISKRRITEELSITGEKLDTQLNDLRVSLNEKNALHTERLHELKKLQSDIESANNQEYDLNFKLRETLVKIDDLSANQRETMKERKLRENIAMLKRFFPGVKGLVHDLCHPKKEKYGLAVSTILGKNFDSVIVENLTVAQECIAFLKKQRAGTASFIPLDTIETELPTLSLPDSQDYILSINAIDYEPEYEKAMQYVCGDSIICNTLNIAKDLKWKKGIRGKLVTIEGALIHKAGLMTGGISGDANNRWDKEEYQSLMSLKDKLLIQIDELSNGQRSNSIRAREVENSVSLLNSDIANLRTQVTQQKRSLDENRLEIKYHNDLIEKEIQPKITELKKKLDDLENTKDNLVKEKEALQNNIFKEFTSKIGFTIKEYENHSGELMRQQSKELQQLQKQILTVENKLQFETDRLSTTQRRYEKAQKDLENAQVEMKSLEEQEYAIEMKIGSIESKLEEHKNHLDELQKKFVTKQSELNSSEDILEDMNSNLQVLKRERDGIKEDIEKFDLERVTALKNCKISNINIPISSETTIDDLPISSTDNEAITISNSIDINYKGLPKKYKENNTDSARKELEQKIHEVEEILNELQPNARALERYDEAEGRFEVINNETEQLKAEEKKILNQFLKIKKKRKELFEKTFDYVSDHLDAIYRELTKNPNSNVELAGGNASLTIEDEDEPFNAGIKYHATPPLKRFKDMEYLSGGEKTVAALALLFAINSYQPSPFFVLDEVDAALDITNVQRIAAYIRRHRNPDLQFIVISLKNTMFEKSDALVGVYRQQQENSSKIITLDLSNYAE
T1 sequence (P47037 1-1230): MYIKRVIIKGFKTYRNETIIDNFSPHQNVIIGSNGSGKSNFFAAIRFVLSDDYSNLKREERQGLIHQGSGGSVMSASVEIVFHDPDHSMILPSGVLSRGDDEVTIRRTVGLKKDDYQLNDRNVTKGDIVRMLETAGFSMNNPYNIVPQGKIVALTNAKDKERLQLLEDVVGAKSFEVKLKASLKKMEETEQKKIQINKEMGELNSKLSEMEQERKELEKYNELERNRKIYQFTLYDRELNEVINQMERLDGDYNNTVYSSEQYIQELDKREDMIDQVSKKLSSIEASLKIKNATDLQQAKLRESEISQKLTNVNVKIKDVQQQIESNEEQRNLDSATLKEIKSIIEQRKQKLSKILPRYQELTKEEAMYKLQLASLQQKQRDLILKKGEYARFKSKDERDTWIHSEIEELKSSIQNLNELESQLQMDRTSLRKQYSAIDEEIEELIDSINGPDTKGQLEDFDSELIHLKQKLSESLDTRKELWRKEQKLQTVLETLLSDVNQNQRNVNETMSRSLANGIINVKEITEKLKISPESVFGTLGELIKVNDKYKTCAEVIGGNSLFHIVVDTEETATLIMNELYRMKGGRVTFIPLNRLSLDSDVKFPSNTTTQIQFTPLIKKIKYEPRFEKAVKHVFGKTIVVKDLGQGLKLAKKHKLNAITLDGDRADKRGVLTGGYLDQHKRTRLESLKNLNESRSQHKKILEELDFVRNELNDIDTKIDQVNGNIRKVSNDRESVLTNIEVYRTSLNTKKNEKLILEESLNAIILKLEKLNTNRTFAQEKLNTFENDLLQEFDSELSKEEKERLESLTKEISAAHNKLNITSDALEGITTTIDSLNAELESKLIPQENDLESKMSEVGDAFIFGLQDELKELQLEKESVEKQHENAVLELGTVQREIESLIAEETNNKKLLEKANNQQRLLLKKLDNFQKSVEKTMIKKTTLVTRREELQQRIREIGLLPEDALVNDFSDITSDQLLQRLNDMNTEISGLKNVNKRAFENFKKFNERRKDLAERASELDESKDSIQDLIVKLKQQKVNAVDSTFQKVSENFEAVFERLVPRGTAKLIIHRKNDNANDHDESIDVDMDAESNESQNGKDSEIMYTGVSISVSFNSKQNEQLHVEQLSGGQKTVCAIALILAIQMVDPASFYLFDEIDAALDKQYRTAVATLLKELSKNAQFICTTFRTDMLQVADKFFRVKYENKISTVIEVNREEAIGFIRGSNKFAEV
T1 sequence (Q12158 1-566 partner): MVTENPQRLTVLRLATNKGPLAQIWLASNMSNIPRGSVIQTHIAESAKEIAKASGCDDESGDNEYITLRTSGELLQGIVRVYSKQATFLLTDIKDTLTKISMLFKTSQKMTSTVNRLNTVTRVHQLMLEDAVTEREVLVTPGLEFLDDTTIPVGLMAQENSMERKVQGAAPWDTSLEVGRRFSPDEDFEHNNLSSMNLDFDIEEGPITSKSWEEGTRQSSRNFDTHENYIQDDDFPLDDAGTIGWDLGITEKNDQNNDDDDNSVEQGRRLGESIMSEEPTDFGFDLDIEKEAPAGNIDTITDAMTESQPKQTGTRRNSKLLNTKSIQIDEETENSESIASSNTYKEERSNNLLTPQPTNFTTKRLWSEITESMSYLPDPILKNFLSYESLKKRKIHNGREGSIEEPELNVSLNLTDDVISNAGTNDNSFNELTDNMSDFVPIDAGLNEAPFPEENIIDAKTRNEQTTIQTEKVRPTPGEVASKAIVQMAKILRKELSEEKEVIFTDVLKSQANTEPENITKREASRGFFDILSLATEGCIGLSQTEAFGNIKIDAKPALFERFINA
Experiment: microscale thermophoresis
Assay type: binding
Conditions: fluorescently labelled protein; Smc1 co-purified with Scc1-C, plus Smc3; read-out: affinity
Description: microscale thermophoresis on Smc1/Smc3 heterodimer with Scc1-C (cohesin) | wild-type and mutant cohesin complexes appear to have similar affinities to ADP

Nc1ncnc2c1ncn2[C@@H]1O[C@H](COP(=O)(O)OP(=O)(O)O)[C@@H](O)[C@H]1O [ADP]
pKd: < 3.00
